Reference: PMC7591906, “pHLIP ICG for delineation of tumors and blood flow during fluorescence-guided surgery” (Scientific Reports, 2020)
Peptide text beside a SMILES is read from it. * marks the point of attachment. X1 = CC1(C)C(/C=C/C=C/C=C/C=C2/N(CCCCCC(=O)NCCN3C(=O)CC(*)C3=O)c3ccc4ccccc4c3C2(C)C)=[N+](CCCCS(=O)(=O)[O-])c2ccc3ccccc3c21

Legend:
[1] = molecular target: T1, progesterone receptor B (Homo sapiens, UniProt P06401); experiment: Progesterone receptor B radioligand binding assay
T1 construct: purchased Eurofins Panlabs, Inc
T1 sequence (P06401 1-933): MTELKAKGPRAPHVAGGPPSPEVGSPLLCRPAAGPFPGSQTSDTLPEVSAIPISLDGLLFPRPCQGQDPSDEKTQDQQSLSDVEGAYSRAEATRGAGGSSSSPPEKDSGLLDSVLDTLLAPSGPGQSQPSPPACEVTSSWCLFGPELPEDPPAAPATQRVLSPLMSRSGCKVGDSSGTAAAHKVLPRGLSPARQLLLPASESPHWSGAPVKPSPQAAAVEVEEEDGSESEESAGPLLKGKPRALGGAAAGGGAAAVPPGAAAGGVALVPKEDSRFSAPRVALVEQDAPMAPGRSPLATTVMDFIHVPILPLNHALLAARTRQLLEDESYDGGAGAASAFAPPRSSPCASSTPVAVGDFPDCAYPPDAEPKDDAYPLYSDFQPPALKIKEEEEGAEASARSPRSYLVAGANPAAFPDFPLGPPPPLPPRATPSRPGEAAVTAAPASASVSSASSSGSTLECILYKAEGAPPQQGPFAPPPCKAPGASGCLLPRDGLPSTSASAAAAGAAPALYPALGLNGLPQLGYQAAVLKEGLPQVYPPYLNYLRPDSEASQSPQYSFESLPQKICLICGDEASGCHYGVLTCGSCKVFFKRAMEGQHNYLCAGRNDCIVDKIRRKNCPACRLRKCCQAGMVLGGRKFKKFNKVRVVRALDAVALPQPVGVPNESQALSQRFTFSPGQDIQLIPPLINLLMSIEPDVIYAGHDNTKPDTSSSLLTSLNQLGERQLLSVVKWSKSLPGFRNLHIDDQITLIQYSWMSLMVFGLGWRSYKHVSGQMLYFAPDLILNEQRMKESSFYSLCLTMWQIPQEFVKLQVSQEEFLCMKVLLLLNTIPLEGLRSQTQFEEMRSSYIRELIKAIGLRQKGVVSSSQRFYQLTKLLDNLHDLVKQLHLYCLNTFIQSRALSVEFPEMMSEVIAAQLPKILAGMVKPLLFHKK
Procedure: The pHLIP ICG enzyme binding assays were performed by Eurofins Panlabs, Inc. according to standard assay protocols. The following enzymes were used in the binding assay with 2 µM of pHLIP ICG : acetyl cholinesterase; peptidase (angiotensin converting enzyme); ATPase (Na^+/K^+, pig heart); CTSG peptidase (cathepsin G); cyclooxygenases COX-1 and COX-2; monoamine oxidases MAO-A and MAO-B; phosphodiesterases PDE3 and PDE4D2; protein tyrosine kinase (insulin receptor); protein tyrosine kinase (LCK); protein serine/threonine kinase (PKC, non-selective); adenosine A1 and A2A; adenosine transporter; adrenergic α1A, α1B, α1D, α2A, α2B, β1 and β2; norepinephrine transporter (NET); androgen (testosterone); angiotensin AT1; bradykinin B2; calcium channels L-type (benzothiazepine, dihydropyridine, phenylalkylamine); calcium channel N-type; cannabinoid CB1 and CB2; chemokine CCR1; cholecystokinin CCK1 (CCKA) and CCK2 (CCKB); dopamine D1, D2L and D2S; dopamine transporter (DAT); endothelin ETA; estrogen ERα; GABA transporter; GABAAs (flunitrazepam, central; Ro-15-1788, hippocampus and chloride channel, TBOB); glucocorticoid; glutamate (AMPA, kainate, agonism NMDA, glycine NMDA, phencyclidine NMDA, polyamine NMDA, and mGlu5 metabotropic); glycine (strychnine-sensitive); histamine H1 and H2; chemokine CXCR2 (IL-8RB); cysteinyl leukotriene (CysLT1); melanocortin MC1 and MC4; muscarinic M1, M2, M3, and M4; tachykinin NK1; neuropeptide Y Y1; nicotinic acetylcholine α1 (bungarotoxin) and α3β4; opiate δ1 (OP1, DOP), κ (OP2, KOP), and μ (OP3, MOP); platelet activating factor (PAF); potassium channels (KATP and hERG); PPARγ; serotonin (5-hydroxytryptamine) 5-HT1A, 5-HT1B, 5-HT2A, 5-HT2B, 5-HT2C, and 5-HT3; serotonin transporter (SERT); sodium channel (site 2); vasopressin V1A; progesterone (PR-B). The most significant inhibitory effect of pHLIP ICG was observed on progesterone B and was followed by an additional study to identify IC50 values, which were determined by a non-linear least square regression analysis using MathIQTM (ID Business Solutions Ltd., UK). The Ki values were calculated by the equation from Cheng and Prusoff [Cheng, Y., Prusoff, W.H., Biochem. Pharmacol. 22:3099-3108, 1973] using the observed IC50 of pHLIP ICG , the concentration of radioligand employed in the assay, and the historical values for the KD of the ligand (Eurofins Panlabs data). The Hill coefficient (nH), defining the slope of the competitive binding curve, was calculated using MathIQTM. The IC50, Ki, and nH values were established for pHLIP ICG and compared to the known progesterone agonist, R-2050 (Figure S3).
Figure SI,3. […]

[2] = system: 86 enzyme and receptor targets; experiment: Safety pharmacology profiling, enzyme and receptor binding panel (Eurofins Panlabs); conditions: 2 µM; all targets except progesterone receptor B
Procedure: The pHLIP ICG enzyme binding assays were performed by Eurofins Panlabs, Inc. according to standard assay protocols. […] The most significant inhibitory effect of pHLIP ICG was observed on progesterone B and was followed by an additional study to identify IC50 values, which were determined by a non-linear least square regression analysis using MathIQTM (ID Business Solutions Ltd., UK). The Ki values were calculated by the equation from Cheng and Prusoff [Cheng, Y., Prusoff, W.H., Biochem. Pharmacol. 22:3099-3108, 1973] using the observed IC50 of pHLIP ICG , the concentration of radioligand employed in the assay, and the historical values for the KD of the ligand (Eurofins Panlabs data). The Hill coefficient (nH), defining the slope of the competitive binding curve, was calculated using MathIQTM. […]

How did the IC50 [1] turn out when `CC(C)C[C@H](NC(=O)[C@H](Cc1ccc(O)cc1)NC(=O)[C@H](C)NC(=O)[C@H](CCCNC(=N)N)NC(=O)[C@H](Cc1c[nH]c2ccccc12)NC(=O)[C@@H]1CCCN1C(=O)[C@H](CC(N)=O)NC(=O)[C@H](CCC(N)=O)NC(=O)[C@H](CC(=O)O)NC(=O)[C@H](CC(=O)O)NC(=O)[C@H](CSC1CC(=O)N(CCNC(=O)CCCCCN2/C(=C/C=C/C=C/C=C/C3=[N+](CCCCS(=O)(=O)[O-])c4ccc5ccccc5c4C3(C)C)C(C)(C)c3c2ccc2ccccc32)C1=O)NC(=O)[C@H](C)N)C(=O)N[C@@H](CC(=O)O)C(=O)N[C@@H](CC(C)C)C(=O)N[C@@H](CC(C)C)C(=O)N[C@@H](Cc1ccccc1)C(=O)N1CCC[C@H]1C(=O)N[C@H](C(=O)N[C@@H](CC(=O)O)C(=O)N[C@H](C(=O)N[C@@H](CC(C)C)C(=O)N[C@@H](CC(C)C)C(=O)N[C@@H](CC(C)C)C(=O)N[C@@H](CC(=O)O)C(=O)N[C@@H](CC(C)C)C(=O)N[C@@H](CC(C)C)C(=O)N[C@@H](Cc1c[nH]c2ccccc12)C(=O)N[C@@H](C)C(=O)O)[C@@H](C)O)[C@@H](C)O` (stereo partly drawn) [pHLIP ICG] (H-AC(X1)DDQNPWRAYLDLLFPTDTLLLDLLWA-OH) was run?
The IC50 was 640 nM.

What about the Ki [1] of the same compound?
The Ki was 510 nM.

What about the “Inhibitory effect on 86 enzyme and receptor targets” value [2] of the same compound?
The value was “No inhibitory effect was observed”.
